# How the values were obtained:
# [1] = tested on: SOD1-G93A transgenic mice; assay: Histochemical staining (hematoxylin and eosin): count of spinal motor neurons; type: in vivo; conditions: spinal cord, mice sacrificed in extremis
# Method: SOD1-G93A transgenic mice (60-day-old) were treated with butylidenephthalide by oral administration, with a dosage of 500 mg/ kg-body weight once daily. The SOD1-G93A transgenic mice in the experimental group were sacrificed in extremis, and the spinal cord was collected to perform hematoxylin and eosin stain. The number of motor neurons in the spinal cord was observed and counted by using a microscope, and the data was compared with that of the untreated control group.
# LC3-II [2] = assay: Western blotting of autophagy biomarker in spinal cord; type: in vivo, mice; conditions: cervical, thoracic and lumbar spinal cord, compared with untreated control; oral 500 mg/kg-body weight once daily; β-actin internal control
# Method: SOD1-G93A transgenic mice (60-day-old) were treated with butylidenephthalide by oral administration, with a dosage of 500 mg/ kg-body weight once daily. It has been indicated by research that SOD1-G93A transgenic mice lost its spinal motor neurons because of the significant increase of autophagy during the last phase of amyotrophic lateral sclerosis (which can be seen in In vivo optical imaging of motor neuron autophagy in a mouse model of amyotrophic lateral sclerosis. Autophagy 7:9, 1-8; September 2011, which is entirely incorporated hereinto by reference). Therefore, in this example, the SOD1-G93A transgenic mice in experimental group were sacrificed in extremis to collect their spinal cord, and the proteins were extracted from the spinal cord to perform Western blotting and to analyze the protein biomarker of autophagy, LC3-II, which was used to determine whether autophagy occurred in the lumbar spinal motor neurons of the mice, wherein β-actin was used as an internal control.
# [3] = tested on: SOD1-G93A transgenic mice; assay: In vivo analysis: survival of SOD1-G93A transgenic mice; conditions: 60-day-old SOD1-G93A transgenic mice, oral administration, 500 mg/kg-body weight once daily; for Survival days: n = 8, untreated control 127 ± 6.11, 500 mg/kg
# Description: It has been known that about 20% of amyotrophic lateral sclerosis patients were associated with mutations in the gene that encodes Cu/Zn superoxide dismutase enzyme (SOD1), and G93A was the major mutation site. […] A SOD1-G93A transgenic mouse will show the symptoms of amyotrophic lateral sclerosis within about 90±5 days postnatal and will die within about 125±5 days postnatal.
# This example used the above SOD1-G93A transgenic mice as the object of study to perform in vivo analysis. SOD1-G93A transgenic mice (60-day-old) were treated with butylidenephthalide (purchased from ECHO Chemical) by oral administration, with a dosage of 500 mg/ kg-body weight once daily, wherein the unit "mg/kg-body weight" means the dosage required per kg-body weight. […]
# [4] = tested on: SOD1-G93A transgenic mice; assay: In vivo analysis: BBB Locomotor Rating Scale of the hind limbs; conditions: oral 500 mg/kg-body weight once daily from day 60
# Method: SOD1-G93A transgenic mice (60-day-old) were treated with butylidenephthalide by oral administration, with a dosage of 500 mg/ kg-body weight once daily. After the mice were treated for 30 days, the hind limbs of the mice were examined by BBB scale (Basso, Beattie, and Bresnahan (BBB) Locomotor Rating Scale). The BBB scale of the hind limbs of normal mice was 21 points, while the BBB scale of disease-progressed SOD1-G93A transgenic mice decreased from 21 to 0 points, wherein the lower scale represents a more severe action disorder in the mice. BBB scale is used to record the drug efficiency.
# LC3-II [5] = assay: Cellular experiment: Western blotting of LC3-II in NSCs after H2O2 stimulation of autophagy; type: cell-based, mouse; conditions: 10 µg/mL for 12 hours, then H2O2 (2500 µM/mL) for 12 hours
# Method: Cellular experiment was performed by using NSCs (neural stem cells) which can differentiate into mouse motor neurons to imitate mouse motor neurons.
# NSCs were incubated in a culture dish (10 cm in diameter). The cells were washed with PBS when grown to a density of 60% confluence, and treated with different concentrations of butylidenephthalide for 12 hours. The cells were then treated with H2O2 (2500 µM/mL) for 12 hours to stimulate the autophagy of cells. Then, the cells were collected and the proteins were extracted, and the protein expression level of LC3-II in NSC was analyzed by SDS-PAGE and Western blotting.
smiles,measurement,setting,value
CCCC=C1OC(=O)c2ccccc21 [butylidenephthalide],The number of motor neurons,"[1]; oral 500 mg/kg-body weight once daily from day 60, control 3 ± 3.1",24
same,The number of motor neurons,"[1]; oral 500 mg/kg-body weight once daily from day 60, control 3 ± 3.1, listed as n-BP",24 ± 4.2
same,protein expression level of LC3-II and pLC3-II,LC3-II [2],significantly decreased
same,life lengthened as compared to the untreated control group,[3],about 22 ± 2 days
same,Survival days,[3],about 149 ± 4.39 days
same,Survival days,[3]; listed as n-BP,149 ± 4.39 days
same,BBB scale of the hind limbs,[4]; after 135 days (decreased rapidly),16 to 0 points
same,BBB scale of the hind limbs,"[4]; from 125 to 135 days (decreased slowly), normal mice 21 points, control fell from 19 to 0 after 110 days",21 to 16 points
same,protein expression level of LC3-II in NSC,LC3-II [5],decrease the protein expression level of LC3-II
